Results: patent US8758816B2, “Compositions comprising azelastine and methods of use thereof” (priority 2004, dated 2014)
Counter-ions that a name gives are not always drawn. Like-named read-outs stand apart in the source and are kept apart here.

Experiments:
[1] = tested on: patients with seasonal allergic rhinitis (SAR); assay: MP 428 study: 14.3.5 Vital Sign Assessments, Safety Population
[2] = tested on: patients with seasonal allergic rhinitis (SAR); details: in vivo
[3] = human, in vivo; cited from earlier work
[4] = Leaching of azelastine into the polymer of unit dose containers; assay type: physicochemical
[5] = Day 14, Patients of Age 12 to 17
[6] = Day 14, Patients of Age 18 and Beyond
[7] = Day 14, baseline at Screening, Patients of Age 12 to 17
[8] = Day 14, baseline at Screening, Patients of Age 18 and Beyond
[9] = Day 14, baseline at Screening, Safety Population
[10] = Screening, Patients of Age 12 to 17
[11] = Screening, Patients of Age 18 and Beyond

## CCC(=O)O[C@]1(C(=O)SCF)[C@H](C)C[C@H]2[C@@H]3C[C@H](F)C4=CC(=O)C=C[C@]4(C)[C@@]3(F)[C@@H](O)C[C@@]21C [Fluticasone, fluticasone propionate]
[1]; Day 1, Safety Population
  Diastolic Blood Pressure, Actual, Mean: 74.0 mmHg
  Diastolic Blood Pressure, Actual, Median: 76.0 mmHg
  Diastolic Blood Pressure, Actual, Min-Max: 41-89 mmHg
  Pulse Rate, Actual, Mean: 75.0 bpm
  Pulse Rate, Actual, Median: 75.0 bpm
  Pulse Rate, Actual, Min-Max: 57-92 bpm
  Respiration, Actual, Mean: 15.8 bpm
  Respiration, Actual, Median: 16.0 bpm
  Respiration, Actual, Min-Max: 12-18 bpm
  Systolic Blood Pressure, Actual, Mean: 117.9 mmHg
  Systolic Blood Pressure, Actual, Median: 118.5 mmHg
  Systolic Blood Pressure, Actual, Min-Max: 93-142 mmHg
  Temperature, Actual, Mean: 97.89 ° F.
  Temperature, Actual, Median: 97.85 ° F.
  Temperature, Actual, Min-Max: 97.0-99.8 ° F.
[1]; Day 7, Safety Population
  Diastolic Blood Pressure, Actual, Mean: 72.7 mmHg
  Diastolic Blood Pressure, Actual, Median: 74.0 mmHg
  Diastolic Blood Pressure, Actual, Min-Max: 58-86 mmHg
  Diastolic Blood Pressure, Change from baseline, Mean: −1.5 mmHg
  Diastolic Blood Pressure, Change from baseline, Median: −1.5 mmHg
  Diastolic Blood Pressure, Change from baseline, Min-Max: −15-19 mmHg
  Pulse Rate, Actual, Mean: 75.5 bpm
  Pulse Rate, Actual, Median: 74.0 bpm
  Pulse Rate, Actual, Min-Max: 52-102 bpm
  Pulse Rate, Change from baseline, Mean: 0.5 bpm
  Pulse Rate, Change from baseline, Median: −2.0 bpm
  Pulse Rate, Change from baseline, Min-Max: −29-38 bpm
  Respiration, Actual, Mean: 16.0 bpm
  Respiration, Actual, Median: 16.0 bpm
  Respiration, Actual, Min-Max: 12-20 bpm
  Respiration, Change from baseline, Mean: 0.2 bpm
  Respiration, Change from baseline, Median: 0.0 bpm
  Respiration, Change from baseline, Min-Max: −4-4 bpm
  Systolic Blood Pressure, Actual, Mean: 116.7 mmHg
  Systolic Blood Pressure, Actual, Median: 116.0 mmHg
  Systolic Blood Pressure, Actual, Min-Max: 95-142 mmHg
  Systolic Blood Pressure, Change from baseline, Mean: −1.4 mmHg
  Systolic Blood Pressure, Change from baseline, Median: −0.5 mmHg
  Systolic Blood Pressure, Change from baseline, Min-Max: −21-15 mmHg
  Temperature, Actual, Mean: 97.90 ° F.
  Temperature, Actual, Median: 97.95 ° F.
  Temperature, Actual, Min-Max: 96.0-98.9 ° F.
  Temperature, Change from baseline, Mean: −0.03 ° F.
  Temperature, Change from baseline, Median: 0.00 ° F.
  Temperature, Change from baseline, Min-Max: −1.8-1.8 ° F.
[1]; [5]
  Body Weight for Patients of Age 12 to 17, Actual, Mean: 135.8 lb
  Body Weight for Patients of Age 12 to 17, Actual, Median: 121.5 lb
  Body Weight for Patients of Age 12 to 17, Actual, Min-Max: 87-197 lb
[1]; [6]
  Body Weight for Patients of Age 18 and Beyond, Actual, Mean: 178.2 lb
  Body Weight for Patients of Age 18 and Beyond, Actual, Median: 172.0 lb
  Body Weight for Patients of Age 18 and Beyond, Actual, Min-Max: 115-265 lb
[1]; Day 14, Safety Population
  Body Weight, Actual, Mean: 173.0 lb
  Body Weight, Actual, Median: 168.0 lb
  Body Weight, Actual, Min-Max: 87-265 lb
  Diastolic Blood Pressure, Actual, Mean: 73.6 mmHg
  Diastolic Blood Pressure, Actual, Median: 74.0 mmHg
  Diastolic Blood Pressure, Actual, Min-Max: 54-90 mmHg
  Diastolic Blood Pressure, Change from baseline, Mean: −0.4 mmHg
  Diastolic Blood Pressure, Change from baseline, Median: 0.0 mmHg
  Diastolic Blood Pressure, Change from baseline, Min-Max: −24-22 mmHg
  Pulse Rate, Actual, Mean: 75.3 bpm
  Pulse Rate, Actual, Median: 74.0 bpm
  Pulse Rate, Actual, Min-Max: 53-95 bpm
  Pulse Rate, Change from baseline, Mean: 0.3 bpm
  Pulse Rate, Change from baseline, Median: 1.0 bpm
  Pulse Rate, Change from baseline, Min-Max: −22-23 bpm
  Respiration, Actual, Mean: 15.8 bpm
  Respiration, Actual, Median: 16.0 bpm
  Respiration, Actual, Min-Max: 12-20 bpm
  Respiration, Change from baseline, Mean: 0.0 bpm
  Respiration, Change from baseline, Median: 0.0 bpm
  Respiration, Change from baseline, Min-Max: −4-4 bpm
  Systolic Blood Pressure, Actual, Mean: 118.9 mmHg
  Systolic Blood Pressure, Actual, Median: 117.0 mmHg
  Systolic Blood Pressure, Actual, Min-Max: 98-170 mmHg
  Systolic Blood Pressure, Change from baseline, Mean: 1.0 mmHg
  Systolic Blood Pressure, Change from baseline, Median: 1.5 mmHg
  Systolic Blood Pressure, Change from baseline, Min-Max: −20-40 mmHg
  Temperature, Actual, Mean: 97.86 ° F.
  Temperature, Actual, Median: 97.90 ° F.
  Temperature, Actual, Min-Max: 96.2-99.1 ° F.
  Temperature, Change from baseline, Mean: −0.03 ° F.
  Temperature, Change from baseline, Median: 0.10 ° F.
  Temperature, Change from baseline, Min-Max: −1.6-2.0 ° F.
[1]; [7]
  Body Weight for Patients of Age 12 to 17, Change from baseline, Mean: −0.5 lb
  Body Weight for Patients of Age 12 to 17, Change from baseline, Median: −0.5 lb
  Body Weight for Patients of Age 12 to 17, Change from baseline, Min-Max: −2-2 lb
[1]; [8]
  Body Weight for Patients of Age 18 and Beyond, Change from baseline, Mean: −0.5 lb
  Body Weight for Patients of Age 18 and Beyond, Change from baseline, Median: 0.0 lb
  Body Weight for Patients of Age 18 and Beyond, Change from baseline, Min-Max: −6-7 lb
[1]; [9]
  Body Weight, Change from baseline, Mean: −0.5 lb
  Body Weight, Change from baseline, Median: 0.0 lb
  Body Weight, Change from baseline, Min-Max: −6-7 lb
[1]; [10]
  Body Weight for Patients of Age 12 to 17, Actual, Mean: 136.3 lb
  Body Weight for Patients of Age 12 to 17, Actual, Median: 122.5 lb
  Body Weight for Patients of Age 12 to 17, Actual, Min-Max: 85-199 lb
[1]; [11]
  Body Weight for Patients of Age 18 and Beyond, Actual, Mean: 177.9 lb
  Body Weight for Patients of Age 18 and Beyond, Actual, Median: 169.5 lb
  Body Weight for Patients of Age 18 and Beyond, Actual, Min-Max: 117-269 lb
[1]; Screening, Safety Population
  Body Weight, Actual, Mean: 172.9 lb
  Body Weight, Actual, Median: 168.5 lb
  Body Weight, Actual, Min-Max: 85-269 lb
  Diastolic Blood Pressure, Actual, Mean: 75.6 mmHg
  Diastolic Blood Pressure, Actual, Median: 78.0 mmHg
  Diastolic Blood Pressure, Actual, Min-Max: 50-95 mmHg
  Pulse Rate, Actual, Mean: 75.5 bpm
  Pulse Rate, Actual, Median: 78.0 bpm
  Pulse Rate, Actual, Min-Max: 50-103 bpm
  Respiration, Actual, Mean: 15.7 bpm
  Respiration, Actual, Median: 16.0 bpm
  Respiration, Actual, Min-Max: 12-20 bpm
  Systolic Blood Pressure, Actual, Mean: 121.2 mmHg
  Systolic Blood Pressure, Actual, Median: 119.5 mmHg
  Systolic Blood Pressure, Actual, Min-Max: 96-156 mmHg
  Temperature, Actual, Mean: 98.04 ° F.
  Temperature, Actual, Median: 98.00 ° F.
  Temperature, Actual, Min-Max: 96.9-99.3 ° F.

## CN1CCCC(n2nc(Cc3ccc(Cl)cc3)c3ccccc3c2=O)CC1 (racemic) [Azelastine, (±)-1-(2H)-phthalazinone, 4-[(4-chlorophenyl)methyl]-2-(hexahydro-1-methyl-1H-azepin-4-yl)-, mono-hydrochloride]
[2]
  Body Weight for Patients of Age 12 to 17, Actual, Mean: 104.7 lb
  Body Weight for Patients of Age 12 to 17, Actual, Median: 104.0 lb
  Body Weight for Patients of Age 12 to 17, Actual, Min-Max: 98-112 lb
  Body Weight for Patients of Age 18 and Beyond, Actual, Mean: 186.2 lb
  Body Weight for Patients of Age 18 and Beyond, Actual, Median: 177.8 lb
  Body Weight for Patients of Age 18 and Beyond, Actual, Min-Max: 102-284 lb
  Body Weight, Actual, Mean: 181.2 lb
  Body Weight, Actual, Median: 174.0 lb
  Body Weight, Actual, Min-Max: 98-284 lb
  Respiration, Actual, Median: 16.0 bpm
  Respiration, Change from baseline, Median: 0.0 bpm
  Respiration, Change from baseline, Min-Max: −4-4 bpm
[3]
  bitter taste adverse event: 19.7%
[4]; HDPE unit dose containers, in contrast to lower-density PE
  leaching into the container material: reduce, substantially reduce, or eliminate leaching
[4]; containers of polymers other than HDPE, including polyethylenes of lower density
  leachability into the container material: high degree of undesirable leachability
